Experimental data: ChEMBL document CHEMBL3046358, “Multiple Pro-197 substitutions in the acetolactate synthase of rigid ryegrass (Lolium rigidum) and their impact on chlorsulfuron activity and plant growth” (Crop Prot, 2012)

Experiments:
Lolium rigidum [1] = experiment: Herbicidal activity against Lolium rigidum accession A13 assessed as emergence rate applied at 1 times pre-emergence recommended rate relative to untreated control; assay type: functional
Lolium rigidum [2] = experiment: Herbicidal activity against Lolium rigidum accession A03 assessed as fresh weight reduction applied at 4 times pre-emergence recommended rate relative to untreated control; assay type: functional; design: scale not given: the % may be the effect or the level left
Acetolactate synthase [3] = target: T1, Acetolactate synthase (Lolium rigidum, UniProt A7XBP7); experiment: Inhibition of acetolactate synthase Pro-197/Pro-197 mutant in Lolium rigidum accession A11 leaves extracts by acetolactate production assay; settings: read-out: I50
Lolium rigidum [4] = experiment: Herbicidal activity against Lolium rigidum accession A03 assessed as fresh weight reduction applied at 1 times pre-emergence recommended rate applied in pots where terbufos had been incorporated into the soil relative to untreated control; assay type: functional; design: scale not given: the % may be the effect or the level left
Lolium rigidum [5] = experiment: Herbicidal activity against Lolium rigidum accession A07 assessed as emergence rate applied at 4 times pre-emergence recommended rate relative to untreated control; assay type: functional
Lolium rigidum [6] = experiment: Herbicidal activity against Lolium rigidum accession A07 assessed as fresh weight reduction applied at 1 times pre-emergence recommended rate relative to untreated control; assay type: functional; design: scale not given: the % may be the effect or the level left
Lolium rigidum [7] = experiment: Herbicidal activity against Lolium rigidum accession A06 assessed as emergence rate applied at 1 times pre-emergence recommended rate applied in pots where terbufos had been incorporated into the soil relative to untreated control; assay type: functional
Lolium rigidum [8] = experiment: Herbicidal activity against Lolium rigidum accession A12 assessed as emergence rate applied at 4 times pre-emergence recommended rate relative to untreated control; assay type: functional
[9] = target: T2, Acetolactate synthase (Lolium rigidum) (UniProt A7XBP7); experiment: Resistance index, ratio of I50 for acetolactate synthase Pro-197/Leu-197 mutant in Lolium rigidum accession A07 leaves extracts to I50 for acetolactate synthase in Lolium rigidum accession A01 leaves extracts
T2 sequence (whole entry): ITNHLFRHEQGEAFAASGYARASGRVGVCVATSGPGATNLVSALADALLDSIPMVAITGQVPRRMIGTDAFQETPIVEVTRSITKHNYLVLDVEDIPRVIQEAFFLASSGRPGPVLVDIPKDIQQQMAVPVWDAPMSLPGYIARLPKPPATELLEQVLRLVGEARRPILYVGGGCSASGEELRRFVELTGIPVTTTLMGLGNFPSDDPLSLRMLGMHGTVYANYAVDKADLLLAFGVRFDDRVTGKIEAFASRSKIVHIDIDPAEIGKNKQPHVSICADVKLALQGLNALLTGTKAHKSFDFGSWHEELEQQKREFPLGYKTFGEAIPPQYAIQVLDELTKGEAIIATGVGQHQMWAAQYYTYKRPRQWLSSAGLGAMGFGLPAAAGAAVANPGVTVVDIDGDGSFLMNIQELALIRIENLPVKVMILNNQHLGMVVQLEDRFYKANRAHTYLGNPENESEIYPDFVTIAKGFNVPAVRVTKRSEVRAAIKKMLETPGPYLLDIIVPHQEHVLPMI

Lolium rigidum [10] = experiment: Herbicidal activity against Lolium rigidum accession A01 assessed as fresh weight reduction applied at 1 times pre-emergence recommended rate relative to untreated control; assay type: functional; design: scale not given: the % may be the effect or the level left
Lolium rigidum [11] = experiment: Herbicidal activity against Lolium rigidum accession A06 assessed as emergence rate applied at 1 times pre-emergence recommended rate relative to untreated control; assay type: functional
Lolium rigidum [12] = experiment: Herbicidal activity against Lolium rigidum accession A13 assessed as emergence rate applied at 1 times pre-emergence recommended rate applied in pots where terbufos had been incorporated into the soil relative to untreated control; assay type: functional
Lolium rigidum [13] = experiment: Herbicidal activity against Lolium rigidum accession A07 assessed as emergence rate applied at 1 times pre-emergence recommended rate applied in pots where terbufos had been incorporated into the soil relative to untreated control; assay type: functional
Lolium rigidum [14] = experiment: Herbicidal activity against Lolium rigidum accession A05 assessed as fresh weight reduction applied at 1 times pre-emergence recommended rate applied in pots where terbufos had been incorporated into the soil relative to untreated control; assay type: functional; design: scale not given: the % may be the effect or the level left
Lolium rigidum [15] = experiment: Herbicidal activity against Lolium rigidum accession A09 assessed as emergence rate applied at 1 times pre-emergence recommended rate relative to untreated control; assay type: functional
Lolium rigidum [16] = experiment: Herbicidal activity against Lolium rigidum accession A13 assessed as emergence rate applied at 4 times pre-emergence recommended rate relative to untreated control; assay type: functional
Lolium rigidum [17] = experiment: Herbicidal activity against Lolium rigidum accession A15 assessed as fresh weight reduction applied at 1 times pre-emergence recommended rate applied in pots where terbufos had been incorporated into the soil relative to untreated control; assay type: functional; design: scale not given: the % may be the effect or the level left
Lolium rigidum [18] = experiment: Herbicidal activity against Lolium rigidum accession A03 assessed as emergence rate applied at 4 times pre-emergence recommended rate relative to untreated control; assay type: functional
Lolium rigidum [19] = experiment: Herbicidal activity against Lolium rigidum accession A14 assessed as fresh weight reduction applied at 1 times pre-emergence recommended rate relative to untreated control; assay type: functional; design: scale not given: the % may be the effect or the level left
Lolium rigidum [20] = experiment: Herbicidal activity against Lolium rigidum accession A03 assessed as fresh weight reduction applied at 1 times pre-emergence recommended rate relative to untreated control; assay type: functional; design: scale not given: the % may be the effect or the level left
Lolium rigidum [21] = experiment: Herbicidal activity against Lolium rigidum accession A13 assessed as fresh weight reduction applied at 1 times pre-emergence recommended rate applied in pots where terbufos had been incorporated into the soil relative to untreated control; assay type: functional; design: scale not given: the % may be the effect or the level left
Lolium rigidum [22] = experiment: Herbicidal activity against Lolium rigidum accession A02 assessed as emergence rate applied at 1 times pre-emergence recommended rate applied in pots where terbufos had been incorporated into the soil relative to untreated control; assay type: functional
Lolium rigidum [23] = experiment: Herbicidal activity against Lolium rigidum accession A04 assessed as emergence rate applied at 1 times pre-emergence recommended rate applied in pots where terbufos had been incorporated into the soil relative to untreated control; assay type: functional
Acetolactate synthase [24] = target: T1, Acetolactate synthase; experiment: Inhibition of acetolactate synthase Ser-197/Ser-197 mutant in Lolium rigidum accession A21 leaves extracts by acetolactate production assay; settings: read-out: I50
Lolium rigidum [25] = experiment: Herbicidal activity against Lolium rigidum accession A11 assessed as fresh weight reduction applied at 1 times pre-emergence recommended rate applied in pots where terbufos had been incorporated into the soil relative to untreated control; assay type: functional; design: scale not given: the % may be the effect or the level left
[26] = target: T2, Acetolactate synthase (Lolium rigidum); experiment: Resistance index, ratio of I50 for acetolactate synthase Pro-197/Pro-197 mutant in Lolium rigidum accession A10 leaves extracts to I50 for acetolactate synthase in Lolium rigidum accession A01 leaves extracts
Lolium rigidum [27] = experiment: Herbicidal activity against Lolium rigidum accession A05 assessed as fresh weight reduction applied at 4 times pre-emergence recommended rate relative to untreated control; assay type: functional; design: scale not given: the % may be the effect or the level left
Lolium rigidum [28] = experiment: Herbicidal activity against Lolium rigidum accession A09 assessed as emergence rate applied at 1 times pre-emergence recommended rate applied in pots where terbufos had been incorporated into the soil relative to untreated control; assay type: functional
[29] = target: T2, Acetolactate synthase (Lolium rigidum); experiment: Resistance index, ratio of I50 for acetolactate synthase Ala-197/Ala-197 mutant in Lolium rigidum accession A06 leaves extracts to I50 for acetolactate synthase in Lolium rigidum accession A01 leaves extracts
Acetolactate synthase [30] = target: Acetolactate synthase (Lolium rigidum, UniProt A7XBP7, P197R/P197S); experiment: Inhibition of acetolactate synthase Pro-197/Arg-197 or Pro-197/Ser-197 or Pro/Val or Ala/Leu mutant in Lolium rigidum accession A17 leaves extracts by acetolactate production assay; settings: read-out: I50
Lolium rigidum [31] = experiment: Herbicidal activity against Lolium rigidum accession A01 assessed as emergence rate applied at 4 times pre-emergence recommended rate relative to untreated control; assay type: functional
Lolium rigidum [32] = experiment: Herbicidal activity against Lolium rigidum accession A15 assessed as fresh weight reduction applied at 4 times pre-emergence recommended rate relative to untreated control; assay type: functional; design: scale not given: the % may be the effect or the level left
Lolium rigidum [33] = experiment: Herbicidal activity against Lolium rigidum accession A02 assessed as fresh weight reduction applied at 1 times pre-emergence recommended rate applied in pots where terbufos had been incorporated into the soil relative to untreated control; assay type: functional; design: scale not given: the % may be the effect or the level left

## COc1nc(C)nc(NC(=O)NS(=O)(=O)c2ccccc2Cl)n1 [CHLORSULFURON]
Lolium rigidum [1]
  Activity: 1%
Lolium rigidum [2]
  Activity: 91%
Acetolactate synthase [3]
  IC50: 30 nM
Lolium rigidum [4]
  Activity: 99%
Lolium rigidum [5]
  Activity: 34%
Lolium rigidum [6]
  Activity: 0%
Lolium rigidum [7]
  Activity: 92%
Lolium rigidum [8]
  Activity: 1%
[9]
  Ratio: 61
Lolium rigidum [10]
  Activity: 98%
Lolium rigidum [11]
  Activity: 89%
Lolium rigidum [12]
  Activity: 0%
Lolium rigidum [13]
  Activity: 85%
Lolium rigidum [14]
  Activity: 0%
Lolium rigidum [15]
  Activity: 44%
Lolium rigidum [16]
  Activity: 1%
Lolium rigidum [17]
  Activity: 97%
Lolium rigidum [18]
  Activity: 1%
Lolium rigidum [19]
  Activity: 94%
Lolium rigidum [20]
  Activity: 95%
Lolium rigidum [21]
  Activity: 100%
Lolium rigidum [22]
  Activity: 0%
Lolium rigidum [23]
  Activity: 2%
Acetolactate synthase [24]
  IC50: 1580 nM
Lolium rigidum [25]
  Activity: 97%
[26]
  Ratio: 1
Lolium rigidum [27]
  Activity: 2%
Lolium rigidum [28]
  Activity: 3%
[29]
  Ratio: 470
Acetolactate synthase [30]
  IC50: 870 nM
Lolium rigidum [31]
  Activity: 1%
Lolium rigidum [32]
  Activity: 98%
Lolium rigidum [33]
  Activity: 100%
